# Measured values taken from patent EP0284180A1, “Prostaglandins E and anti ulcers containing same” (Kabushiki Kaisha Ueno Seiyaku Oyo Kenkyujo, priority 1987, dated 1988).
# Where two headings read alike, the source gives them in different places.
# How the values were obtained:
# [1] = test system: confinement-stress induced ulcers through immersion in water; assay: Confinement-stress induced ulcers through immersion in water (hydrorestraint stress ulcer preventing effect); type: in vivo, male rats of the Crj : Wistar strain; settings: for inhibition at 1 mg/kg: dosage 1 mg/kg; for inhibition at 3 mg/kg: dosage 3 mg/kg; for inhibition at 0.3 mg/kg: dosage 0.3 mg/kg; for ulcer inhibiting effect: conclusion in words from Table 3; for inhibition at 10 mg/kg: dosage 10 mg/kg; for inhibition at 5 mg/kg: dosage 5 mg/kg
# Procedure: (§1) As test samples, we used the PGE as obtained in Examples 2 to 52 as described herein, 13,14-dihydro-15-keto-PGE2 (produced by Funakoshi & Co.) being employed as a control reference.
# (§2) Each group of test animals used consisted of 8 to 10 male rats of the Crj : Wistar strain, weighing 180 to 230 g. Test animals were fasted for 24 hours before the oral administration of the test samples; in the case of development of confinement-stress induced ulcers through immersion in water, 10 minutes after oral administration of the test specimens, the aminals were confined in a stress cage developed by Univ. of Tokyo, then immersed up to the ensiform process of sternum in water at 23°C for 4 hours and sacrificed; in the case of formation of indomethacin-induced ulcers, shortly after the materials were given, animals were given indomethacin orally at a dose of 10 mg/kg and sacrificed after 5 hours.
# (§3) The stomacks were taken out, followed by fixation with 1 % formalin, and incised along the greater curvature to carry out investigation under an illuminated magnifier for ulceration. The degree and extent of lesion and ulcer were rated based on the ulceration index being classified into the following five numerical categories: • 0: normal, with no lesion detected; • 1: bleeding or erosion of mucosa; • 2: development of less than 5 small ulcers (not greater than 2 mm in diameter); • 3: generation of not less than 5 small ulcers or a large ulcer (not less than 2 mm in diameter); • 4: generation of not less than 2 large ulcers.
# (§4) On the basis of the criteria that the rats with the ulceration index of not less than "2", the ulcer inhibition rate (EDso) was calculated from ulcer-generation ratio in the control and the ratio of the test specimens.
# [2] = test system: indomethacin-induced ulcers; assay: Indomethacin-induced ulcers (indomethacin ulcer preventing effect); type: in vivo, male rats of the Crj : Wistar strain; settings: rats; for ED50: ulcer inhibition rate (Table 2); for Ulcer index (aver. ± SE): indomethacin 10 mg/kg oral ulcer, index 0-4
# Procedure: as §1, §2, §3, §4
# [3] = test system: ileum; assay: Intestinal constriction effect, isolated ileum in Magnus tube; design: species or system male Wister rat; settings: rat ileum, constriction relative to acetylcholine, ED50 class
# Procedure: A male Wister rat (of 250 - 300g in weight) was struck to death, and immediately its carotid artery was cut to dehematize. An ileum portion located about 10 cm from the cecum was extracted, and after its contents were washed away with a Tyrode liquid, a 1.5 - 2 cm long part of it was cut off and hung in a Magnus tube.
# The constriction of the ileum was brought to rest for 15 - 20 minutes until the ileum was allowed to be stabilized, and subsequently the ileum was constricted with […]/mt of acetylcholine. After constructions of same magnitude were had two times, the material to be tested was cumulatively administered at one- minute intervals.
# Constrictions with the material tested were expressed in terms of ratios, based on constriction per 10 g/m t of acetylcholine, and values for ED50 were determined. + : EDso < 10^-6 M ±: 10^-4 M ≦ ED50 ≦ 10^-6 M -: 10^-4 M < ED50
# [4] = test system: trachea; assay: Tracheal relaxation, isolated tracheal rings constricted with histamine; design: species or system male gunea pig; settings: guinea pig trachea, inhibition of constriction under histamine 5.4 x 10^-4 M, IC50 class, read-out: Tracheal relaxation effect
# Procedure: A male gunea pig (of about 300 g in weight) was struck to death, and its artery was cut to dehematize. Its trachea, after having been extracted, was cut open lengthwise on the opposite side to the trachea smooth muscle, and seven tracheal rings were connected by string in a chain-like pattern, same being hung in a Magnus tube.
# Trachea was brought to rest for 60 - 90 minutes and until tracheal equilibrium was reached. Thereafter, 5.4 x 10 ^-4 M of histamine was administered in such manner that it was cumulatively administered at 6 minutes' intervals after a constriction peak was reached. Tracheal relaxation with the material tested was expressed in terms of ratio of constrictional inhibition under histamine administering, and values for IC50 were determined. + : IC50 < 10^-7 M ± : 10^-5 M ≦ IC50 ≦ 10^-7 M -: 10^-5 M < IC50
# [5] = test system: uterus; assay: Uterine constriction, isolated uterus in Magnus tube; design: species or system female rat; settings: rat uterus, constriction relative to 1 mU oxytocin = 100, EC50 class; read-out: Uterus constriction effect
# Procedure: A female rat (of 150g in weight) was dehematized to death, and its uterus was taken out, which was cut to a length of 1.5 - 2.5 cm. The cut uterus was hung in a magnus tube. The uterus was constricted several times with 1 mU Oxytocin. After stable uterine movement was obtained, the material to be tested was independently administered. Constrictions with the material were expressed in terms of ratios based on constriction of 1 mU of oxytocin = 100, and values of EC50 were determined on the following standards. +:EC50 < 10^-7 M ±:10^-5 M ≦ EC50 ≦ 10^-7 M -: 10^-5 M < ECso
# [6] = Rattus norvegicus, stress ulcer, rats, oral, ulcer inhibition rate, ulceration index not less than 2 counted (Table 1), read-out: ED50
# [7] = Rattus norvegicus, indomethacin ulcer, oral, dosage 20 mg/kg, read-out: Inhibition factor (%)
# [8] = Rattus norvegicus, indomethacin ulcer, oral
# [9] = Rattus norvegicus, stress ulcer, rats, oral, read-out: Inhibition factor (%)
# [10] = Rattus norvegicus, po, hydrorestraint stress-ulcer preventing effect, procedure of Test Example 1 (Table 3), read-out: Ulcer inhibiting effect ED50
# [11] = Rattus norvegicus, indomethacin ulcer, oral, dosage 3 mg/kg, read-out: Inhibition factor (%)
# [12] = Rattus norvegicus, indomethacin ulcer, oral, dosage 10 mg/kg, read-out: Inhibition factor (%)
# [13] = Rattus norvegicus, indomethacin ulcer, oral, dosage 1 mg/kg, read-out: Inhibition factor (%)
smiles,measurement,setting,value
CCCCCC(=O)CC[C@H]1[C@H](O)CC(=O)[C@@H]1C/C=C\CCCC(=O)O [(1)],inhibition at 20 mg/kg,"[1]; Rattus norvegicus, stress ulcer, rats, oral, dosage 20 mg/kg, read-out: Inhibition factor (%)",6.3%
same,ED50,[1]; [6],> 20 mg/kg
same,inhibition at 20 mg/kg,[2]; [7],4%
same,ED50,[2]; [8],> 20 mg/kg
same,Ulcer index (aver. ± SE),[2]; dosage 20 mg/kg,2.4±0.4
CCCCCCC(=O)CC[C@H]1[C@H](O)CC(=O)[C@@H]1CC(=O)CCCCC(=O)OCC [(37)],inhibition at 1 mg/kg,[1]; [9],8.1%
same,inhibition at 3 mg/kg,[1]; [9],45.9%
same,inhibition at 6 mg/kg,"[1]; Rattus norvegicus, stress ulcer, rats, oral, dosage 6 mg/kg, read-out: Inhibition factor (%)",79.7%
same,ED50,[1]; [6],3 mg/kg
CCCCCC(=O)CC[C@H]1[C@H](O)CC(=O)[C@@H]1CC(=O)CCCCC(=O)OCCCC [(10)],inhibition at 1 mg/kg,[1]; [9],25.5%
same,inhibition at 3 mg/kg,[1]; [9],78.4%
same,ED50,[1]; [6],1.5 mg/kg
CCCCCC(=O)CC[C@H]1[C@H](C)CC(=O)[C@@H]1CC(=O)CCCCC(=O)OCC [(39)],inhibition at 0.3 mg/kg,[1]; [9],30.2%
same,inhibition at 1 mg/kg,[1]; [9],77.5%
same,inhibition at 3 mg/kg,[1]; [9],85.3%
same,ED50,[1]; [6],0.5 mg/kg
"CCCCCC(=O)CC[C@H]1[C@H](O)CC(=O)[C@@H]1C/C=C\CCCC(=O)O [Material (1), 13, 14-dihydro-15-keto-PGE2, reference compound]",ED50,[1]; [10],> 20 mg/kg
same,ulcer inhibiting effect,[1],no pharmacological or physiological effect
same,antiulcerative effect,[1]; conclusion in words from Tables 1 and 2,no antiulcerative effect
same,EC50,[3],> 100 µM
same,IC50,[4]; Cavia porcellus,0.1 to 10 µM
same,EC50,[5],0.1 to 10 µM
CCCCCC(=O)CC[C@H]1[C@H](O)CC(=O)[C@@H]1C/C=C\CCCC(=O)OCC [(3)],inhibition at 1 mg/kg,[1]; [9],25%
same,inhibition at 3 mg/kg,[1]; [9],86.1%
same,inhibition at 10 mg/kg,[1]; [9],100%
same,ED50,[1]; [6],1.5 mg/kg
same,inhibition at 3 mg/kg,[2]; [11],42.9%
same,inhibition at 10 mg/kg,[2]; [12],71.4%
same,ED50,[2]; [8],4.4 mg/kg
same,Ulcer index (aver. ± SE),[2]; dosage 3 mg/kg,1.7±0.4
same,Ulcer index (aver. ± SE),[2]; dosage 10 mg/kg,1.0±0.3
CCOC(=O)CCCCC(=O)C[C@H]1C(=O)C[C@@H](O)[C@@H]1CCC(=O)CCCC(C)C [(36)],inhibition at 0.3 mg/kg,[1]; [9],22.6%
same,inhibition at 1 mg/kg,[1]; [9],57%
same,ED50,[1]; [6],0.8 mg/kg
CCCCCC(=O)CC[C@H]1[C@H](O)CC(=O)[C@@H]1CCCCCCC(=O)OC [(6)],inhibition at 3 mg/kg,[1]; [9],28%
same,inhibition at 10 mg/kg,[1]; [9],72.2%
same,ED50,[1]; [6],5.5 mg/kg
"CCCCCC(=O)CC[C@H]1[C@H](O)CC(=O)[C@@H]1C/C=C\CCCC(=O)OCC [Material (3), 13, 14-dihydro-15-keto-PGE2 ethyl ester]",ED50,[1]; [10],1.5 mg/kg
same,ulcer inhibiting effect,[1],a high degree of ulcer inhibiting effect
same,EC50,[3],> 100 µM
same,IC50,[4],> 10 µM
same,EC50,[5],> 10 µM
CCCCCC(=O)CC[C@H]1[C@H](O)CC(=O)[C@@H]1C/C=C\CCCC(=O)OC(C)C [(5)],inhibition at 1 mg/kg,[1]; [9],14.3%
same,inhibition at 5 mg/kg,[1]; [9],44%
same,ED50,[1]; [6],6.5 mg/kg
CCCCCC(=O)CC[C@H]1[C@H](O)CC(=O)[C@@H]1C/C=C\CCCC(=O)OCCC [(4)],inhibition at 1 mg/kg,[1]; [9],16.7%
same,inhibition at 5 mg/kg,[1]; [9],44.4%
same,ED50,[1]; [6],7 mg/kg
CCCCCC(=O)CC[C@H]1[C@H](C)CC(=O)[C@@H]1CC(=O)CCCCC(=O)OC [(38)],inhibition at 0.3 mg/kg,[1]; [9],8.1%
same,inhibition at 1 mg/kg,[1]; [9],45.9%
same,inhibition at 3 mg/kg,[1]; [9],79.7%
same,ED50,[1]; [6],1.5 mg/kg
CCCCCC(=O)CC[C@H]1[C@H](O)CC(=O)[C@@H]1CC(=O)CCCCC(=O)OCC [(9)],inhibition at 0.3 mg/kg,[1]; [9],37.5%
same,inhibition at 1 mg/kg,[1]; [9],75%
same,ED50,[1]; [6],0.45 mg/kg
same,inhibition at 1 mg/kg,[2]; [13],37.5%
same,inhibition at 3 mg/kg,[2]; [11],50.5%
same,ED50,[2]; [8],3 mg/kg
same,Ulcer index (aver. ± SE),[2]; dosage 1 mg/kg,2.1±0.3
same,Ulcer index (aver. ± SE),[2]; dosage 3 mg/kg,1.5±0.3
CCCCCC(=O)CC[C@H]1[C@H](O)CC(=O)[C@@H]1CC(=O)CCCCC(=O)OCC (racemic) [(11)],inhibition at 1 mg/kg,[1]; [9],25%
same,inhibition at 3 mg/kg,[1]; [9],57.1%
same,inhibition at 10 mg/kg,[1]; [9],85.7%
same,ED50,[1]; [6],2.4 mg/kg
same,inhibition at 3 mg/kg,[2]; [11],0%
same,inhibition at 10 mg/kg,[2]; [12],50%
same,ED50,[2]; [8],10 mg/kg
same,Ulcer index (aver. ± SE),[2]; dosage 3 mg/kg,2.6±0.3
same,Ulcer index (aver. ± SE),[2]; dosage 10 mg/kg,2.0±0.2
CCCCCC(=O)CC[C@H]1[C@H](O)CC(=O)[C@@H]1C/C=C\CCCC(=O)OC [(2)],inhibition at 5 mg/kg,[1]; [9],58.3%
same,inhibition at 15 mg/kg,"[1]; Rattus norvegicus, stress ulcer, rats, oral, dosage 15 mg/kg, read-out: Inhibition factor (%)",87.5%
same,ED50,[1]; [6],4 mg/kg
same,inhibition at 3 mg/kg,[2]; [11],30%
same,inhibition at 6 mg/kg,"[2]; Rattus norvegicus, indomethacin ulcer, oral, dosage 6 mg/kg, read-out: Inhibition factor (%)",50%
same,inhibition at 20 mg/kg,[2]; [7],100%
same,ED50,[2]; [8],6 mg/kg
same,Ulcer index (aver. ± SE),[2]; dosage 3 mg/kg,1.9±0.4
same,Ulcer index (aver. ± SE),[2]; dosage 6 mg/kg,1.4±0.3
same,Ulcer index (aver. ± SE),[2]; dosage 20 mg/kg,0.4±0.2
CCCCC[C@H](O)/C=C/[C@H]1[C@H](O)CC(=O)[C@@H]1C/C=C\CCCC(=O)OCC [B],ED50,[1]; [10],0.4 mg/kg
same,EC50,[3],< 1 µM
same,IC50,[4],< 0.1 µM
same,EC50,[5],0.1 to 10 µM
CCCCCC(=O)CC[C@H]1[C@H](O)CC(=O)[C@@H]1CCCCCCC(=O)OCC [(7)],inhibition at 3 mg/kg,[1]; [9],37.5%
same,inhibition at 10 mg/kg,[1]; [9],75%
same,ED50,[1]; [6],4.5 mg/kg
CCCCCC(=O)CC[C@H]1[C@H](O)CC(=O)[C@@H]1CC(=O)CCCCC(=O)OC [(8)],inhibition at 0.3 mg/kg,[1]; [9],30.6%
same,inhibition at 1 mg/kg,[1]; [9],62.5%
same,ED50,[1]; [6],0.6 mg/kg
same,inhibition at 1 mg/kg,[2]; [13],14.3%
same,inhibition at 3 mg/kg,[2]; [11],42.9%
same,ED50,[2]; [8],3.8 mg/kg
same,Ulcer index (aver. ± SE),[2]; dosage 1 mg/kg,2.3±0.4
same,Ulcer index (aver. ± SE),[2]; dosage 3 mg/kg,1.7±0.3
CCCCC[C@H](O)/C=C/[C@H]1[C@H](O)CC(=O)[C@@H]1C/C=C\CCCC(=O)O [A],ED50,[1]; [10],0.5 mg/kg
same,EC50,[3],< 1 µM
same,IC50,[4],< 0.1 µM
same,EC50,[5],< 0.1 µM
